Data on 3 compounds can be found in patent US20250295660A1, “METHODS OF TREATING NF1-MUTANT TUMORS USING LSD1 INHIBITORS” (ORYZON GENOMICS, S.A., priority 2022, published 2025).

What is called EC50 is the concentration giving half of the maximal effect.

Holding throughout (type): cell-based
Data set [1] has as its system sNF02.2 (MPNST) cell line. Put plainly: Cell viability of NF1-mutant tumor cell line sNF02.2 (MTT or AlamarBlue). To be noted: 6 days treatment; for EC50: 144 h, NF1 c. 4868A > T. On the procedure:
(§1) Mycoplasma-free tumor cell lines from different tumor types carrying mutations in the NF1 gene (see Table 1) were seeded in 50 μl/well of complete medium (as described in Table 2, all reagents from Thermo Fisher) in 96-well plates at the optimal cell density to ensure log-phase growth throughout the duration of the experiment (see Table 2). The day after seeding, 50 μl of medium containing 9 serial dilutions (1:3) of 2×-concentrated iadademstat (LSD1 inhibitor; used as the dihydrochloride salt) were added to the cells to obtain 100 μl of cells treated with 1×-concentrated compound at each dilution. Additionally, the effect of other LSD1 inhibitors, i.e. bomedemstat (bis-tosylate salt) and pulrodemstat (besylate salt), was likewise evaluated in a subset of these tumor cell lines (sNF96.2, sNF02.2, MOLM13 and NCIH510A).
(§2) Each experimental condition was tested in technical triplicates, including medium-only wells and vehicle-treated controls for background correction and normalization, respectively. After treatment, cells were incubated at 37° C. in a humidified and controlled 5% CO2 atmosphere (see Table 2 for duration of treatment according to the growth curve of each cell line and number of cells seeded) and compound and medium refreshment was performed by adding 50 μl of medium supplemented with 1×-concentrated compound at each corresponding dilution when the duration of the treatment exceeded 4 days of drug incubation (see Table 2). After treatment, cell viability was evaluated using either the MTT assay (Sigma-Aldrich) or AlamarBlue™ Cell viability reagent (Life Technologies), following manufacturer's instructions. Background was calculated as the mean of the values of medium-only controls and subtracted from each data point. The average of background-corrected technical triplicates was calculated and normalized by the mean of vehicle-treated controls (corresponding to 100% of viability). Data were analyzed using GraphPad PRISM® version 9.0.1 (GraphPad Software, Inc., La Jolla, CA/USA) to calculate the best-fitting curves and the EC50 values (corresponding to the concentration of compound at which a half (50%) maximal effect is obtained; lower EC50 values thus indicate greater potency).

The subject of data set [2] is MOLM13 (AML) cell line. Put plainly: Cell viability of NF1-mutant tumor cell line MOLM13 (MTT or AlamarBlue). The note with it: 4 days treatment; for EC50: Homo sapiens, MOLM-13, 96 h, NF1 p. E1720D. On the procedure: as §1, §2
(Resazurin is reduced to fluorescent resorufin, in cell work by metabolically active cells.)

Data set [3] deals with NCIH510A (SCLC) cell line. Put plainly: Cell viability of NF1-mutant tumor cell line NCIH510A (MTT or AlamarBlue). The note with it: 10 days treatment; for EC50: Homo sapiens, NCI-H510A, 240 h, NF1 p. D2184G/p. L2618L. On the procedure: as §1, §2
The test system of data set [4] is MPNST-NF1-18b (MPNST) cell line. Description: Cell viability of NF1-mutant tumor cell line MPNST-NF1-18b (MTT or AlamarBlue). To be noted: 6 days treatment. On the procedure: as §1
(§3) Each experimental condition was tested in technical triplicates, including medium-only wells and vehicle-treated controls for background correction and normalization, respectively. […] After treatment, cell viability was evaluated using either the MTT assay (Sigma-Aldrich) or AlamarBlue™ Cell viability reagent (Life Technologies), following manufacturer's instructions. Background was calculated as the mean of the values of medium-only controls and subtracted from each data point. […]

The subject of data set [5] is RD (rhabdomyosarcoma) cell line. Description: Cell viability of NF1-mutant tumor cell line RD (MTT or AlamarBlue). The note with it: 6 days treatment. On the procedure: as §1, §3
In data set [6] the test system is hTERT ipNF95.11b C (plexiform neurofibroma) cell line. Description: Cell viability of NF1-mutant tumor cell line hTERT ipNF95.11b C (MTT or AlamarBlue). To be noted: 7 days treatment. On the procedure: as §1, §3
In data set [7] the test system is A204 (rhabdoid tumor) cell line. Put plainly: Cell viability of NF1-mutant tumor cell line A204 (MTT or AlamarBlue). The note with it: 6 days treatment. On the procedure:
as §1, §3

The test system of data set [8] is TC71 (Ewing's sarcoma) cell line. Put plainly: Cell viability of NF1-mutant tumor cell line TC71 (MTT or AlamarBlue). To be noted: 6 days treatment. On the procedure: as §1, §3
The subject of data set [9] is hTERT ipnNF95.11c (plexiform neurofibroma) cell line. Description: Cell viability of NF1-mutant tumor cell line hTERT ipnNF95.11c (MTT or AlamarBlue). The note with it: 7 days treatment. On the procedure: as §1, §3
For data set [10], the system named is NCIH446 (SCLC) cell line. Description: Cell viability of NF1-mutant tumor cell line NCIH446 (MTT or AlamarBlue). To be noted: 10 days treatment. On the procedure: as §1, §3
Data set [11] has as its system MDAMB231 (TN breast cancer) cell line. Description: Cell viability of NF1-mutant tumor cell line MDAMB231 (MTT or AlamarBlue). The note with it: 4 days treatment. On the procedure: as §1, §3
Data set [12] deals with MHHES1 (Ewing's sarcoma) cell line. Description: Cell viability of NF1-mutant tumor cell line MHHES1 (MTT or AlamarBlue). The note with it: 6 days treatment. On the procedure: as §1, §3
The subject of data set [13] is sNF96.2 (MPNST) cell line. Description: Cell viability of NF1-mutant tumor cell line sNF96.2 (MTT or AlamarBlue). The note with it: 6 days treatment. On the procedure: as §1, §3
Data set [14] has as its system DAUDI (Burkitt's lymphoma) cell line. Put plainly: Cell viability of NF1-mutant tumor cell line DAUDI (MTT or AlamarBlue). The note with it: 4 days treatment. On the procedure:
as §1, §3

Data set [15] has as its system MOLT4 (ALL) cell line. Description: Cell viability of NF1-mutant tumor cell line MOLT4 (MTT or AlamarBlue). To be noted: 10 days treatment. On the procedure: as §1, §3

In the case of `CN1CCN(C(=O)[C@H](CCCN[C@@H]2C[C@H]2c2ccc(F)cc2)NC(=O)c2ccc(-n3ccnn3)cc2)CC1` [Bomedemstat, N-[(2S)-5-{[(1R,2S)-2-(4-fluorophenyl)cyclopropyl]amino}-1-(4-methylpiperazin-1-yl)-1-oxopentan-2-yl]-4-(1H-1,2,3-triazol-1-yl)benzamide], the figures for the EC50 in data set [1], in data set [2] and in [3] were 0.094 nM, 5.38 nM and 10.5 nM, respectively.
The corresponding values for `COc1ccc(-c2c(-c3ccc(C#N)c(F)c3)nc(N3CCC(N)CC3)n(C)c2=O)cc1F` [Pulrodemstat, 4-[2-(4-aminopiperidin-1-yl)-5-(3-fluoro-4-methoxyphenyl)-1-methyl-6-oxo-1,6-dihydropyrimidin-4-yl]-2-fluorobenzonitrile] are 0.166 nM, 0.82 nM and 1.73 nM.
As for `N[C@H]1CC[C@H](N[C@@H]2C[C@H]2c2ccccc2)CC1` [Iadademstat, (trans)-N1-((1R,2S)-2-phenylcyclopropyl)cyclohexane-1,4-diamine], the EC50 is 0.025 nM in [4] (144 h, NF1 SNV at intron 14 + LOH); 0.02 nM in [1]; 0.14 nM in data set [6] (168 h, NF1 c. 1756delACTA/ LOH); 0.158 nM in data set [2]; 0.1 nM in data set [7] (Homo sapiens, 144 h, NF1 p. L1274F); 0.841 nM in data set [9] (168 h, NF1 c. 1756delACTA). For the same compound, the EC50 in data set [13] (144 h, NF1 c. 3683delC + LOH) came out at 0.042 nM; in data set [15] (Homo sapiens, MOLT-4, 240 h, NF1 p. G1502G/ NS), 0.795 nM; in data set [3] it was 0.16 nM. Also, the “Response (classification according to viability reduction)” value in [4] is “Strong (strong response (viability reduction>30%))”; in [5], “Low (low response (viability reduction<15%))”; in [1], “Medium (medium response (viability reduction>15% and <30%))”; in data set [6], “Medium (medium response (viability reduction>15% and <30%))”; in data set [2], “Strong (strong response (viability reduction>30%))”; in data set [7], “Strong (strong response (viability reduction>30%))”. Besides, the “Response (classification according to viability reduction)” value in data set [8] is on record as “Low (low response (viability reduction<15%))”; in [9], “Strong (strong response (viability reduction>30%))”; in data set [10], “Low (low response (viability reduction<15%))”; in data set [11] it was “Low (low response (viability reduction<15%))”; in data set [12], “Low (low response (viability reduction<15%))”; in [13], “Strong (strong response (viability reduction>30%))”. In addition, the “Response (classification according to viability reduction)” value in data set [14] is “Low (low response (viability reduction<15%))”; in data set [15], “Strong (strong response (viability reduction>30%))”; in data set [3], “Strong (strong response (viability reduction>30%))”.
